From ChEMBL document CHEMBL1151757, “Synthesis, radiosynthesis, and biological evaluation of fluorine-18-labeled 2beta-carbo(fluoroalkoxy)-3beta-(3'-((Z)-2-haloethenyl)phenyl)nortropanes: candidate radioligands for in vivo imaging of the serotonin transporter with positron emission tomography” (J Med Chem, 2008)

Tests used:
[1] = Ratio of drug uptake in pons to cerebellum in anesthetized cynomolgus monkey after 95 mins postinjection; format: ADME, organism-based, Macaca fascicularis; details: in vivo
[2] = Ratio of drug uptake in medulla to cerebellum in anesthetized cynomolgus monkey after 95 mins postinjection; format: ADME, organism-based, Macaca fascicularis; details: in vivo
[3] = Drug uptake in anesthetized cynomolgus monkey brain occipital lobe after 18.5 mins postinjection; format: ADME, organism-based, Macaca fascicularis; details: in vivo
[4] = Drug uptake in anesthetized cynomolgus monkey brain occipital lobe after 65 mins postinjection; format: ADME, organism-based, Macaca fascicularis; details: in vivo
[5] = Ratio of drug uptake in midbrain to cerebellum in anesthetized cynomolgus monkey after 215 mins postinjection; format: ADME, organism-based, Macaca fascicularis; details: in vivo
Putamen [6] = experiment: Drug uptake in anesthetized cynomolgus monkey brain putamen after 175 mins postinjection; format: ADME, organism-based, Macaca fascicularis; details: in vivo
Putamen [7] = experiment: Drug uptake in anesthetized cynomolgus monkey brain putamen after 235 mins postinjection; format: ADME, organism-based, Macaca fascicularis; details: in vivo
[8] = Ratio of drug uptake in occipital lobe to cerebellum in anesthetized cynomolgus monkey after 195 mins postinjection; format: ADME, organism-based, Macaca fascicularis; details: in vivo, 3.25 h
[9] = Ratio of drug uptake in frontal lobe to cerebellum in anesthetized cynomolgus monkey after 35 mins postinjection; format: ADME, organism-based, Macaca fascicularis; details: in vivo
Midbrain [10] = experiment: Drug uptake in anesthetized cynomolgus monkey brain midbrain after 215 mins postinjection; format: ADME, organism-based, Macaca fascicularis; details: in vivo
Pons [11] = experiment: Drug uptake in anesthetized cynomolgus monkey brain pons after 0.5 mins postinjection; format: ADME, organism-based, Macaca fascicularis; details: in vivo
Pons [12] = experiment: Drug uptake in anesthetized cynomolgus monkey brain pons after 27.5 mins postinjection; format: ADME, organism-based, Macaca fascicularis; details: in vivo
Pons [13] = experiment: Drug uptake in anesthetized cynomolgus monkey brain pons after 35 mins postinjection; format: ADME, organism-based, Macaca fascicularis; details: in vivo
Pons [14] = experiment: Drug uptake in anesthetized cynomolgus monkey brain pons after 55 mins postinjection; format: ADME, organism-based, Macaca fascicularis; details: in vivo
Pons [15] = experiment: Drug uptake in anesthetized cynomolgus monkey brain pons after 65 mins postinjection; format: ADME, organism-based, Macaca fascicularis; details: in vivo
Midbrain [16] = experiment: Drug uptake in anesthetized cynomolgus monkey brain midbrain after 185 mins postinjection; format: ADME, organism-based, Macaca fascicularis; details: in vivo
Medulla [17] = experiment: Drug uptake in anesthetized cynomolgus monkey brain medulla after 185 mins postinjection; format: ADME, organism-based, Macaca fascicularis; details: in vivo
Medulla [18] = experiment: Drug uptake in anesthetized cynomolgus monkey brain medulla after 205 mins postinjection; format: ADME, organism-based, Macaca fascicularis; details: in vivo
[19] = Drug uptake in anesthetized cynomolgus monkey brain occipital lobe after 205 mins postinjection; format: ADME, organism-based, Macaca fascicularis; details: in vivo
[20] = Ratio of drug uptake in frontal lobe to cerebellum in anesthetized cynomolgus monkey after 205 mins postinjection; format: ADME, organism-based, Macaca fascicularis; details: in vivo
Putamen [21] = experiment: Drug uptake in anesthetized cynomolgus monkey brain putamen after 185 mins postinjection; format: ADME, organism-based, Macaca fascicularis; details: in vivo
Putamen [22] = experiment: Drug uptake in anesthetized cynomolgus monkey brain putamen after 195 mins postinjection; format: ADME, organism-based, Macaca fascicularis; details: in vivo, 3.25 h
Pons [23] = experiment: Drug uptake in anesthetized cynomolgus monkey brain pons after 125 mins postinjection; format: ADME, organism-based, Macaca fascicularis; details: in vivo
Pons [24] = experiment: Drug uptake in anesthetized cynomolgus monkey brain pons after 215 mins postinjection; format: ADME, organism-based, Macaca fascicularis; details: in vivo
Medulla [25] = experiment: Drug uptake in anesthetized cynomolgus monkey brain medulla after 45 mins postinjection; format: ADME, organism-based, Macaca fascicularis; details: in vivo, 0.75 h
Medulla [26] = experiment: Drug uptake in anesthetized cynomolgus monkey brain medulla after 55 mins postinjection; format: ADME, organism-based, Macaca fascicularis; details: in vivo
Medulla [27] = experiment: Drug uptake in anesthetized cynomolgus monkey brain medulla after 135 mins postinjection; format: ADME, organism-based, Macaca fascicularis; details: in vivo, 2.25 h
Medulla [28] = experiment: Drug uptake in anesthetized cynomolgus monkey brain medulla after 215 mins postinjection; format: ADME, organism-based, Macaca fascicularis; details: in vivo
[29] = Drug uptake in anesthetized cynomolgus monkey brain cerebellum after 215 mins postinjection; format: ADME, organism-based, Macaca fascicularis; details: in vivo
[30] = Ratio of drug uptake in thalamus to cerebellum in anesthetized cynomolgus monkey after 95 mins postinjection; format: ADME, organism-based, Macaca fascicularis; details: in vivo
Caudate [31] = experiment: Drug uptake in anesthetized cynomolgus monkey brain caudate after 9.5 mins postinjection; format: ADME, organism-based, Macaca fascicularis, Caudate nucleus; details: in vivo
Caudate [32] = experiment: Drug uptake in anesthetized cynomolgus monkey brain caudate after 15.5 mins postinjection; format: ADME, organism-based, Macaca fascicularis, Caudate nucleus; details: in vivo
Caudate [33] = experiment: Drug uptake in anesthetized cynomolgus monkey brain caudate after 18.5 mins postinjection; format: ADME, organism-based, Macaca fascicularis, Caudate nucleus; details: in vivo
Caudate [34] = experiment: Drug uptake in anesthetized cynomolgus monkey brain caudate after 45 mins postinjection; format: ADME, organism-based, Macaca fascicularis, Caudate nucleus; details: in vivo, 0.75 h
Caudate [35] = experiment: Drug uptake in anesthetized cynomolgus monkey brain caudate after 225 mins postinjection; format: ADME, organism-based, Macaca fascicularis, Caudate nucleus; details: in vivo, 3.75 h
Caudate [36] = experiment: Drug uptake in anesthetized cynomolgus monkey brain caudate after 235 mins postinjection; format: ADME, organism-based, Macaca fascicularis, Caudate nucleus; details: in vivo
Putamen [37] = experiment: Drug uptake in anesthetized cynomolgus monkey brain putamen after 3.5 mins postinjection; format: ADME, organism-based, Macaca fascicularis; details: in vivo
Thalamus [38] = experiment: Drug uptake in anesthetized cynomolgus monkey brain thalamus after 3.5 mins postinjection; format: ADME, organism-based, Macaca fascicularis; parameters: unit not given here; details: in vivo
Thalamus [39] = experiment: Drug uptake in anesthetized cynomolgus monkey brain thalamus after 27.5 mins postinjection; format: ADME, organism-based, Macaca fascicularis; parameters: unit not given here; details: in vivo
Thalamus [40] = experiment: Drug uptake in anesthetized cynomolgus monkey brain thalamus after 35 mins postinjection; format: ADME, organism-based, Macaca fascicularis; parameters: unit not given here; details: in vivo
Thalamus [41] = experiment: Drug uptake in anesthetized cynomolgus monkey brain thalamus after 45 mins postinjection; format: ADME, organism-based, Macaca fascicularis; parameters: unit not given here; details: in vivo, 0.75 h
Putamen [42] = experiment: Drug uptake in anesthetized cynomolgus monkey brain putamen after 4.5 mins postinjection; format: ADME, organism-based, Macaca fascicularis; parameters: unit not given here; details: in vivo, 0.075 h
Putamen [43] = experiment: Drug uptake in anesthetized cynomolgus monkey brain putamen after 9.5 mins postinjection; format: ADME, organism-based, Macaca fascicularis; parameters: unit not given here; details: in vivo
Putamen [44] = experiment: Drug uptake in anesthetized cynomolgus monkey brain putamen after 105 mins postinjection; format: ADME, organism-based, Macaca fascicularis; parameters: unit not given here; details: in vivo, 1.75 h
Thalamus [45] = experiment: Drug uptake in anesthetized cynomolgus monkey brain thalamus after 235 mins postinjection; format: ADME, organism-based, Macaca fascicularis; parameters: unit not given here; details: in vivo
Midbrain [46] = experiment: Drug uptake in anesthetized cynomolgus monkey brain midbrain after 45 mins postinjection; format: ADME, organism-based, Macaca fascicularis; parameters: unit not given here; details: in vivo, 0.75 h
Midbrain [47] = experiment: Drug uptake in anesthetized cynomolgus monkey brain midbrain after 75 mins postinjection; format: ADME, organism-based, Macaca fascicularis; parameters: unit not given here; details: in vivo, 1.25 h
Midbrain [48] = experiment: Drug uptake in anesthetized cynomolgus monkey brain midbrain after 85 mins postinjection; format: ADME, organism-based, Macaca fascicularis; parameters: unit not given here; details: in vivo
[49] = Ratio of drug uptake in midbrain to cerebellum in anesthetized cynomolgus monkey after 125 mins postinjection; format: ADME, organism-based, Macaca fascicularis; details: in vivo

Structure (SMILES): O=C(OCC[18F])C1C2CCC(CC1c1ccc(/C=C\I)cc1)N2 (centres undefined)
- Ratio [1]: 1.6
- Ratio [2]: 1.8
- Drug uptake [3]: 1.81
- Drug uptake [4]: 2.38
- Ratio [5]: 3.9
- Drug uptake (Putamen [6]): 3.1
- Drug uptake (Putamen [7]): 3.83
- Ratio [8]: 1.4
- Ratio [9]: 0.7
- Drug uptake (Midbrain [10]): 4.63
- Drug uptake (Pons [11]): 0
- Drug uptake (Pons [12]): 2.58
- Drug uptake (Pons [13]): 2.74
- Drug uptake (Pons [14]): 2.99
- Drug uptake (Pons [15]): 3.35
- Drug uptake (Midbrain [16]): 4.64
- Drug uptake (Medulla [17]): 3.41
- Drug uptake (Medulla [18]): 3.32
- Drug uptake [19]: 1.73
- Ratio [20]: 1.4
- Drug uptake (Putamen [21]): 4.01
- Drug uptake (Putamen [22]): 4.01
- Drug uptake (Pons [23]): 3.56
- Drug uptake (Pons [24]): 3.39
- Drug uptake (Medulla [25]): 3.69
- Drug uptake (Medulla [26]): 3.78
- Drug uptake (Medulla [27]): 3.69
- Drug uptake (Medulla [28]): 3.32
- Drug uptake [29]: 1.18
- Ratio [30]: 1.9
- Drug uptake (Caudate [31]): 1.47
- Drug uptake (Caudate [32]): 1.74
- Drug uptake (Caudate [33]): 1.84
- Drug uptake (Caudate [34]): 2.58
- Drug uptake (Caudate [35]): 2.68
- Drug uptake (Caudate [36]): 2.61
- Drug uptake (Putamen [37]): 0.82
- Drug uptake (Thalamus [38]): 0.76
- Drug uptake (Thalamus [39]): 3.06
- Drug uptake (Thalamus [40]): 3.31
- Drug uptake (Thalamus [41]): 3.63
- Drug uptake (Putamen [42]): 1.18
- Drug uptake (Putamen [43]): 2.38
- Drug uptake (Putamen [44]): 4.34
- Drug uptake (Thalamus [45]): 3.34
- Drug uptake (Midbrain [46]): 3.76
- Drug uptake (Midbrain [47]): 4.41
- Drug uptake (Midbrain [48]): 4.42
- Ratio [49]: 2.7
